From US20260216242A1, “ALPP-SPECIFIC VARIANT ANTIGEN BINDING MOLECULES” (ALMAC DISCOVERY LIMITED, priority 2022, published 2026)
Several values for one entry are separate records, joined by “and”; a condition that tells them apart may be missing. Identical values can stand only once. Like-named read-outs stand apart in the source and are kept apart here. Where a SMILES comes first, the peptide text is derived from it. [ ]: non-standard residue; d: D form. The star is where a group is joined. Dolaproine = CO[C@@H]([C@@H]1CCCN1)[C@@H](C)C(=O)O; Dil = CC[C@H](C)[C@H](NC)[C@@H](CC(=O)O)OC; X1 = C[C@@H](N*)[C@@H](O)c1ccccc1; NMeV = CN[C@H](C(=O)O)C(C)C

What was measured:
[1] = system: CHO-ALPI cells; assay: In vitro cell viability (Cell Titre Glo, 96 h), CHO-ALPI; type: cell-based; conditions: cell-killing
Description: (§1) CHO-ALPP isoform stable transfectants were generated using CHO-K1 cells (CCL-61) provided by the American Type Culture Collection (ATCC). Grown in ATCC-formulated F-12K medium+10% FCS.
(§2) In vitro cell viability assays for cancer cells treated with anti ALPP/ALPPL2 drug conjugates Cells were seeded in the appropriate complete growth media, as described above, into white, clear bottom 96 well plates (Costar) and incubated at 37° C., 5% C02 for 24 hours. On the following day, dilution series were set up for each test agent at ×10 working stocks. The dose response X10 stock was e.g.: 10000, 5000, 1000, 500, 100, 50, 10, 5, 1, 0.5 nM etc. 10 μL of the X10 stock solutions were added to the cell plates (90 μl per well) using a multichannel pipette. […] 10 μl of vehicle control (PBS) was added to the control wells (columns 11 and 12). Plates were incubated at 37° C., 5% CO2 for 96 hours. […] Plates were allowed to sit for a further 10 minutes at room temperature prior to measuring luminescence read-out using a Clariostar plate-reader (BMG). Data was analysed by calculating the average for untreated (vehicle only) control wells and determining the % of control for each treated well. % of control data was then plotted against Log [Treatment] concentration and the IC50 value derived using non-linear regression fitting in GraphPad Prism software. […]

[2] = system: NCI-H1651 cells; assay: In vitro cell viability (Cell Titre Glo, 96 h), NCI-H1651; type: cell-based; conditions: Table 24
Description: NCI-H1651 cells, CRL-5884 provided by the American Type Culture Collection (ATCC). Grown in ATCC DMEM:F12 medium+10% FCS plus supplements required to make ACL-4 media as recommended by ATCC.
(§3) In vitro cell viability assays for cancer cells treated with anti ALPP/ALPPL2 drug conjugates Cells were seeded in the appropriate complete growth media, as described above, into white, clear bottom 96 well plates (Costar) and incubated at 37° C., 5% C02 for 24 hours. On the following day, dilution series were set up for each test agent at ×10 working stocks. The dose response X10 stock was e.g.: 10000, 5000, 1000, 500, 100, 50, 10, 5, 1, 0.5 nM etc. […] Plates were allowed to sit for a further 10 minutes at room temperature prior to measuring luminescence read-out using a Clariostar plate-reader (BMG). Data was analysed by calculating the average for untreated (vehicle only) control wells and determining the % of control for each treated well. % of control data was then plotted against Log [Treatment] concentration and the IC50 value derived using non-linear regression fitting in GraphPad Prism software. […]
(§4) Cell Titre Glo assays were performed as described in Example 5. Cells were incubated with VHH-hFc-drug conjugates and h12F3 drug conjugates at 37° C., 5% CO2 for 96 hours and the % of cell viability determined as a function of dose response. […]

[3] = system: CHO-ALPP cells; assay: In vitro cell viability (Cell Titre Glo, 96 h), CHO-ALPP; type: cell-based; conditions: cell-killing
Description: as §1, §3, §4

[4] = system: MKN1 cells; assay: In vitro cell viability (Cell Titre Glo, 96 h), MKN1; type: cell-based; conditions: Table 24
Description: MKN1 cells (RCB1003, Riken BRC). Ref: Cancer Sci 2006; 97:387-394, were provided by the RIKEN BRC through the National BioResource Project of the MEXT, Japan Grown in RPMI1640+10% FCS.
as §3
(§5) Cell Titre Glo assays were performed as described in Example 5. Cells were incubated with biparatopic VHH-hFc-drug conjugates and h12F3 drug conjugate at 37° C., 5% CO2 for 96 hours and the % of cell viability determined as a function of dose response. […]

[5] = system: HeLa cells; assay: In vitro cell viability (Cell Titre Glo, 96 h), HeLa; type: cell-based; conditions: ALPP/ALPPL2 negative cell-line, Table 24
Description: HeLa cells, CCL-2 provided by the American Type Culture Collection (ATCC). Grown in EMEM+10% FCS
In vitro cell viability assays for cancer cells treated with anti ALPP/ALPPL2 drug conjugates Cells were seeded in the appropriate complete growth media, as described above, into white, clear bottom 96 well plates (Costar) and incubated at 37° C., 5% C02 for 24 hours. On the following day, dilution series were set up for each test agent at ×10 working stocks. The dose response X10 stock was e.g.: 10000, 5000, 1000, 500, 100, 50, 10, 5, 1, 0.5 nM etc. 10 μL of the X10 stock solutions were added to the cell plates (90 μl per well) using a multichannel pipette. […] 10 μl of vehicle control (PBS) was added to the control wells (columns 11 and 12). Plates were incubated at 37° C., 5% CO2 for 96 hours. Promega Cell Titre Glo reagent was used as per the manufacturer's instructions to assess cell viability. […] Plates were allowed to sit for a further 10 minutes at room temperature prior to measuring luminescence read-out using a Clariostar plate-reader (BMG). Data was analysed by calculating the average for untreated (vehicle only) control wells and determining the % of control for each treated well. % of control data was then plotted against Log [Treatment] concentration and the IC50 value derived using non-linear regression fitting in GraphPad Prism software. […]

[6] = system: CHO-ALPL cells; assay: In vitro cell viability (Cell Titre Glo, 96 h), CHO-ALPL; type: cell-based; conditions: cell-killing
Description: as §1, §2

[7] = system: NCI-N87 cells; assay: In vitro cell viability (Cell Titre Glo, 96 h), NCI-N87; type: cell-based, human; conditions: Table 24
Description: NCI-N87 cells, CRL-5822 provided by the American Type Culture Collection (ATCC). Grown in RPM11640+10% FCS.
In vitro cell viability assays for cancer cells treated with anti ALPP/ALPPL2 drug conjugates Cells were seeded in the appropriate complete growth media, as described above, into white, clear bottom 96 well plates (Costar) and incubated at 37° C., 5% C02 for 24 hours. On the following day, dilution series were set up for each test agent at ×10 working stocks. The dose response X10 stock was e.g.: 10000, 5000, 1000, 500, 100, 50, 10, 5, 1, 0.5 nM etc. 10 μL of the X10 stock solutions were added to the cell plates (90 μl per well) using a multichannel pipette. […] Plates were allowed to sit for a further 10 minutes at room temperature prior to measuring luminescence read-out using a Clariostar plate-reader (BMG). Data was analysed by calculating the average for untreated (vehicle only) control wells and determining the % of control for each treated well. % of control data was then plotted against Log [Treatment] concentration and the IC50 value derived using non-linear regression fitting in GraphPad Prism software. […]
as §5

[8] = system: CHO-ALPPL2 cells; assay: In vitro cell viability (Cell Titre Glo, 96 h), CHO-ALPPL2; type: cell-based; conditions: cell-killing
Description: as §1, §3, §4

CC[C@H](C)[C@@H]([C@@H](CC(=O)N1CCC[C@H]1[C@H](OC)[C@@H](C)C(=O)N[C@H](C)[C@@H](O)c1ccccc1)OC)N(C)C(=O)[C@@H](NC(=O)[C@@H](NC)C(C)C)C(C)C [MMAE, monomethylauristatin E] (H-[NMeV]V[Dil][Dolaproine]-X1)
IC50 ([1]; Table 18, read-out: IC50 @ 96 h, CHO-ALPI): 11.4 nM and 15.9 nM | IC50 ([1]; Table 23, read-out: IC50 at 96 h, CHO-ALPI): 11.4 nM and 15.9 nM | % viability remaining, NCI-H1651 [2]: 28.1% | IC50 ([2]; cell-killing): 0.8 nM | IC50 ([3]; Table 18, read-out: IC50 @ 96 h, CHO-ALPP): 19.1 nM and 19.5 nM | IC50 ([3]; Table 23, read-out: IC50 at 96 h, CHO-ALPP): 19.1 nM and 19.5 nM | % viability remaining, MKN1 [4]: 23.1% | IC50 ([4]; cell-killing): 1.4 nM | % viability remaining, HeLa [5]: 5.1% | IC50 ([5]; cell-killing): 1.8 nM | IC50 ([6]; Table 18, read-out: IC50 @ 96 h, CHO-ALPL): 29.4 nM and 25.8 nM | IC50 ([6]; Table 23, read-out: IC50 at 96 h, CHO-ALPL): 29.4 nM and 25.8 nM | % viability remaining, NCI-N87 [7]: 27.9% | IC50 ([7]; cell-killing): 0.3 nM | IC50 ([8]; Table 18, read-out: IC50 @ 96 h, CHO-ALPPL2): 24.4 nM and 16.6 nM | IC50 ([8]; Table 23, read-out: IC50 at 96 h, CHO-ALPPL2): 24.4 nM and 15.6 nM
